Assay results reported in patent US20220380432A1, “Acylated Calcitonin Mimetics” (KeyBioscience AG, priority 2018, published 2022).
Numbered stars: 1 amine (or outer) side, 2 acyl side, 3 side chain; on linkers, the order of the positions; unused ones are H or OH. Bridge positions count the residues as written; N and C are the ends. Square brackets hold non-standard residues; d marks the D form. Side chains are listed from the residue outwards. Ends that are not written are not given here. Peptide text beside a SMILES is read from it. * marks the point of attachment. C18 diacid = O=C(O)CCCCCCCCCCCCCCCCC(=O)*; γGlu = O=C(O)[C@H](CCC(=O)[*:2])N[*:1]; AEEA = NCCOCCOCC(=O)O; Aib = CC(C)(N)C(=O)O

Experiments:
male ZDF rats = experiment: Chronic study in male ZDF rats (food intake, body weight, FBG, HbA1c, OGTT); format: in vivo, rat; conditions: 62-day study
Description: A chronic study was performed in male ZDF rats. (obese homozygous recessive (fa/fa) strain: 370) (Charles River, USA). Rats were delivered 5 weeks of age. The rats were housed 2-3 per cage.
Rats were delivered to the animal facility of Nordic Bioscience at five weeks of age (DAY −6). Rats were acclimatized for three days. HbA1c and BW was registered (DAY −3). Rats were randomized based on HbA1c (primarily) and BW (secondly) at […]. The study was initiated at DAY 1.
Animals were dosed once daily with KBP-066 or saline (vehicle). Dosing with KBP-066A11.03 was performed once every third day. Dosing was administered subcutaneously (SC) around noon.
Saline: Dosage volume was 1 mL/kg. […]
DAY −3: HbA1c measurement DAY 1: (first day of study), rats were fasted for 6 h and a BG and blood sample was taken. […] Hb1Ac is measured during the OGTT at t=120 or t=180. […]
Food intake was monitored daily. Body weight was monitored daily for first three weeks, then twice weekly after week three.
Fasting blood glucose was monitored every two weeks using Accu-Check® Avia monitoring system (Roche Diagnostics, Rotkreuz, Switzerland): Measurement was taken from the tail vein (25 G needle).
Rats were non-fasted for the first (randomization) and second (after the second OGTT) HbA1c measurement. A single drop of blood was applied to the HbA1c cassette and the HbA1c was measured using a DCA Vantage Analyzer. […]

[1] = system: serum albumin from humans (HSA); format: binding, man (Homo sapiens)
Description: FIG. 14: Competitive ligand binding assay using radio labelled salmon calcitonin (^125I-sCT) as tracer and conducted 2% serum albumin from two different species, rat (Rattus norvegicus) and man (Homo sapiens). As a tracer 0.25 nM ^125I-sCT was used. A) Competitive binding assay conducted in 2% RSA. B) Competitive binding assay conducted in 2% HSA. Data as +/−SEM. To investigate whether the improved efficacy in the acute setting of acylation 4 and 5 could be translated to man, a competitive ligand binding assay was conducted to explore acylation binding to serum albumin in rodent and man.

Amylin Receptor (AMY-R) = biological target: T1, Amylin Receptor (AMY-R) (Homo sapiens (Human), UniProt P30988); experiment: cell-based or functional assay
T1 sequence 1: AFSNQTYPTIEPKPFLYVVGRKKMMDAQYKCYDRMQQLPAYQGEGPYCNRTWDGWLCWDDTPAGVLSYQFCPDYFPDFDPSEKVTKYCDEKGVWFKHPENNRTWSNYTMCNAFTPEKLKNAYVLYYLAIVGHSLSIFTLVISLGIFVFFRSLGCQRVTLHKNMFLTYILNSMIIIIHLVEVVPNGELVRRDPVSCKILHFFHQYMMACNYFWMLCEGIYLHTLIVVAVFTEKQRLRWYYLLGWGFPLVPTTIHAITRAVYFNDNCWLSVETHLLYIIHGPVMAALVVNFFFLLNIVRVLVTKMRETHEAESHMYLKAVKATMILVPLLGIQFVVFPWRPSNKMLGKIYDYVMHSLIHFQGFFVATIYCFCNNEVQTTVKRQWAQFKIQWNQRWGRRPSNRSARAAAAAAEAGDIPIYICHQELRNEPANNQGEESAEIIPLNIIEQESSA
T1 sequence 2: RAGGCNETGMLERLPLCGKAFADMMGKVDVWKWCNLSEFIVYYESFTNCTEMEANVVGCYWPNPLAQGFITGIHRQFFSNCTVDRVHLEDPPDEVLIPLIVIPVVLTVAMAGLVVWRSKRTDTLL

[2] = biological target: T2, Calcitonin Receptor (CTR) (Homo sapiens (Human), UniProt P30988); experiment: cell-based or functional assay
T2 sequence: T1 sequence 1

CSNLSTC(AiB)LGRLSQDLHRLQTYPKTDVGANAP [KBP-066]
fasting blood glucose (in words) (male ZDF rats): reduced FBG in a dose dependent manner

CC(=O)N[C@H]1CSSC[C@@H](C(=O)NC(C)(C)C(=O)N[C@@H](CC(C)C)C(=O)NCC(=O)N[C@@H](CCCCNC(=O)COCCOCCNC(=O)COCCOCCNC(=O)CC[C@H](NC(=O)CCCCCCCCCCCCCCCCC(=O)O)C(=O)O)C(=O)N[C@@H](CC(C)C)C(=O)N[C@@H](CO)C(=O)N[C@@H](CCC(N)=O)C(=O)N[C@@H](CC(=O)O)C(=O)N[C@@H](CC(C)C)C(=O)N[C@@H](Cc2c[nH]cn2)C(=O)N[C@@H](CCCNC(=N)N)C(=O)N[C@@H](CC(C)C)C(=O)N[C@@H](CCC(N)=O)C(=O)N[C@H](C(=O)N[C@@H](Cc2ccc(O)cc2)C(=O)N2CCC[C@H]2C(=O)N[C@@H](CCCCN)C(=O)N[C@H](C(=O)N[C@@H](CC(=O)O)C(=O)N[C@H](C(=O)NCC(=O)N[C@@H](C)C(=O)N[C@@H](CC(N)=O)C(=O)N[C@@H](C)C(=O)N2CCC[C@H]2C(N)=O)C(C)C)[C@@H](C)O)[C@@H](C)O)NC(=O)[C@H]([C@@H](C)O)NC(=O)[C@H](CO)NC(=O)[C@H](CC(C)C)NC(=O)[C@H](CC(N)=O)NC(=O)[C@H](CO)NC1=O [KBP-356] (Ac-CSNLSTC[Aib]LGK([AEEA-AEEA-γGlu-C18 diacid])LSQDLHRLQTYPKTDVGANAP-NH2; disulfide 1-7 (inferred))
EC50 in competitive binding (in words) [1]: no differences in EC50

B1: KBP-318 (peptide)
peptide: Ac-CSNLSTCMLGRLSQELHRLQTYPKTDVGANAPK
modifications: not fully specified (residue 33); ends and bridges not checked
β-arrestin Fold Recruitment EC50 values (10^-9 M) (Amylin Receptor (AMY-R)): 301 nM
β-arrestin Fold Recruitment EC50 values (10^-9 M) [2]: 197 nM
